# Experimental data from article PMC5515969, “Effects of 31 FDA approved small-molecule kinase inhibitors on isolated rat liver mitochondria” (Archives of Toxicology, 2016).
# Like-named read-outs stand apart in the source and are kept apart here.
# Experiments:
# [1] = tested on: isolated rat liver mitochondria; test: Mitochondrial oxygen consumption (glutamate/malate or succinate driven, state 4 and state 3); assay type: biochemical; details: for Glutamate/malate driven respiration State 3 / Glutamate/malate driven respiration State 4 / Succinate-driven respiration State 3 / Succinate-driven respiration State 4: oxygen consumption, DMSO-treated = 1; for State 3 respiration driven by succinate at 10XCmax: key: 0 indicates that the drug had no effects (negative); for State 3 respiration driven by succinate at 1XCmax: key: 0 indicates that the drug had no effects (negative)
# Summary of the method: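 Oxygen uptake on glutamate/malate or on succinate defined state 4; ADP added 3 min later gave state 3. Mitochondria isolated from rat liver by differential centrifugation, adjusted to 1 mg/ml and pretreated 5 min with inhibitor (0.1% DMSO final). Values relative to DMSO control, set to 1.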
# [2] = tested on: RCC I; test: RCC I activity in submitochondrial particles; assay type: biochemical, rat; parameters: key to RCC I at 10XCmax / RCC I at 100XCmax / RCC I at 50XCmax / RCC I at 30XCmax / RCC I at 20XCmax: activity relative to DMSO-treated controls (control set as 1 = 100%); details: 10XCmax; DMSO treated samples set as 1
# Summary of the method: (§1)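 Rat submitochondrial particles (1 mg/ml) were treated with test compounds for 15 min. RCC IV, like RCC III, was monitored at 550 nm every 10 s for 2 min, and RCC I/V at 340 nm each minute for 6 min. DMSO samples defined unit activity.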
# [3] = target: T1, RCC II (Rattus norvegicus, UniProt P21913+Q641Z9+Q6PCT8+Q920L2); test: RCC II activity in submitochondrial particles; assay type: biochemical; parameters: key: activity relative to DMSO-treated controls (control set as 1 = 100%); details: DMSO treated samples set as 1
# T1 construct: Submitochondrial particles were prepared by subjecting the intact mitochondria to three successive freeze–thaw cycles; from tissue; host or cells: rat liver mitochondria, used as submitochondrial particles
# Summary of the method: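 Activity relative to DMSO (set as 1) after 15-min exposure of submitochondrial particles (1 mg/ml) to compound. RCC I is defined as rotenone-sensitive activity and RCC II is followed at 600 nm over 6 min.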
# [4] = tested on: RCC III; test: RCC III activity in submitochondrial particles; assay type: biochemical, rat; parameters: key to RCC III at 100XCmax: activity relative to DMSO-treated controls (control set as 1 = 100%); details: 100XCmax
# Summary of the method: as §1
# [5] = tested on: RCC IV; test: RCC IV activity in submitochondrial particles; assay type: biochemical, rat; parameters: key to RCC IV at 50XCmax / RCC IV at 100XCmax: activity relative to DMSO-treated controls (control set as 1 = 100%); details: 50XCmax; DMSO treated samples set as 1; in %
# Summary of the method: as §1
# [6] = tested on: isolated rat liver mitochondria; test: Mitochondrial inner membrane potential (MMP), Rhodamine 123; assay type: biochemical; details: difference in signal between KI and DMSO treated samples at the end of experiments
# Excerpt: Fig. 3 KI effects on mitochondrial inner membrane potential (MMP). […] In a, c, data are means and standard derivations from three separate experiments. *p < 0.05 as compared to DMSO-treated samples at the end of experiments. In b, data are means of two independent experiments
# [7] = tested on: isolated rat liver mitochondria; details: positive control alamethicin treated samples
# [8] = cited from earlier work
# [9] = tested on: isolated rat liver mitochondria; test: Mitochondrial ROS production (CM-H2DCFDA); details: DMSO treated samples set as 1
# [10] = 1XCmax, DMSO treated samples set as 1
# [11] = 2.5XCmax, DMSO treated samples set as 1
# [12] = 5XCmax, DMSO treated samples set as 1
# [13] = 10XCmax, DMSO treated samples set as 1
# [14] = 20XCmax, DMSO treated samples set as 1
# [15] = 30XCmax, DMSO treated samples set as 1
# [16] = 50XCmax, DMSO treated samples set as 1
# [17] = 100XCmax, DMSO treated samples set as 1
# [18] = read-out: Cmax at µM, human therapeutic maximal blood concentration, ref product labeling
# T1 sequence (Q920L2 35-656): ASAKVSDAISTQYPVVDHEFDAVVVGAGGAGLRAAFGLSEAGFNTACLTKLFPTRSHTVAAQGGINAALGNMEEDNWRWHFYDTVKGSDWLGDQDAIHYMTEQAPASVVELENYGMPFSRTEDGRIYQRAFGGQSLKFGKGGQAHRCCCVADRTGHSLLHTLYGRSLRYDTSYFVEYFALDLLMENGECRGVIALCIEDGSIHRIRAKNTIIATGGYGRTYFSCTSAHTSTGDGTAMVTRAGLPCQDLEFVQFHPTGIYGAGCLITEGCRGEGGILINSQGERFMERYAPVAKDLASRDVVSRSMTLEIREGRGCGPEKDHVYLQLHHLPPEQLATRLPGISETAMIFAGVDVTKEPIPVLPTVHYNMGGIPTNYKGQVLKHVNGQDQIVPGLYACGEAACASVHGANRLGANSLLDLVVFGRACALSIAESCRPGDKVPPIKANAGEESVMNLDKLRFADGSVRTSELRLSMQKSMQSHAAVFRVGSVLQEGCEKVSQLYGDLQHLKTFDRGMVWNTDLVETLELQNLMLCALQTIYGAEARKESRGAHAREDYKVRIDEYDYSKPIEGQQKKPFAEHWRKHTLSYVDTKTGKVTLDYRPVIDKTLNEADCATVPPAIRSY
# T1 sequence (P21913 31-282): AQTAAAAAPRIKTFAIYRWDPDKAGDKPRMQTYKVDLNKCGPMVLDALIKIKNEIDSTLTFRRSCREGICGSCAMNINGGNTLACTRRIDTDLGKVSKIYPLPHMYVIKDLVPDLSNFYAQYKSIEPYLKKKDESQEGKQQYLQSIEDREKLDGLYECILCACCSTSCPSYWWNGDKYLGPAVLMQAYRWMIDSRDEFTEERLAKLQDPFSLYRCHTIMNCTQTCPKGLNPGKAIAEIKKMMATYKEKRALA
# T1 sequence (Q641Z9 1-169): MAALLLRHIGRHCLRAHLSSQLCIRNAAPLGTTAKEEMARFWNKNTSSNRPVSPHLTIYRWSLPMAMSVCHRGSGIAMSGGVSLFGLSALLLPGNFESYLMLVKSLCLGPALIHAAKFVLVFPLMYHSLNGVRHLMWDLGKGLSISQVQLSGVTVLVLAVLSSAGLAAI
# T1 sequence (Q6PCT8 57-159): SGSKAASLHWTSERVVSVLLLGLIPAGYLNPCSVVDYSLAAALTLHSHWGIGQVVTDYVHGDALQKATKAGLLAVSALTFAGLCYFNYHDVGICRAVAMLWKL
smiles,measurement,setting,value
CC[C@H](Nc1ncnc2[nH]cnc12)c1nc2cccc(F)c2c(=O)n1-c1ccccc1 [Idelalisib],State 3 respiration driven by succinate at 1XCmax,[1]; [10],0
same,State 4 respiration driven by succinate at 1XCmax,[1]; [10],0
same,State 3 respiration driven by succinate at 2.5XCmax,[1]; [11],0
same,State 4 respiration driven by succinate at 2.5XCmax,[1]; [11],0
same,State 3 respiration driven by succinate at 5XCmax,[1]; [12],0
same,State 4 respiration driven by succinate at 5XCmax,[1]; [12],0
same,State 3 respiration driven by succinate at 10XCmax,[1]; [13],0
same,State 4 respiration driven by succinate at 10XCmax,[1]; [13],0
same,State 3 respiration driven by succinate at 20XCmax,[1]; [14],0
same,State 4 respiration driven by succinate at 20XCmax,[1]; [14],0
same,State 3 respiration driven by succinate at 30XCmax,[1]; [15],0
same,State 4 respiration driven by succinate at 30XCmax,[1]; [15],0
same,Glutamate/malate driven respiration State 3,[1]; 50-fold Cmax,0.76 ± 0.04
same,Glutamate/malate driven respiration State 4,[1]; 50-fold Cmax,1.00 ± 0.08
same,Succinate-driven respiration State 3,[1]; 50-fold Cmax,0.83 ± 0.06
same,Succinate-driven respiration State 4,[1]; 50-fold Cmax,0.97 ± 0.04
same,State 3 respiration driven by glutamate/malate at 50XCmax,[1]; [16],0.76±0.04
same,State 3 respiration driven by succinate at 50XCmax,[1]; [16],0
same,State 4 respiration driven by succinate at 50XCmax,[1]; [16],0
same,Glutamate/malate driven respiration State 3,[1]; 100-fold Cmax,0.66 ± 0.03
same,Glutamate/malate driven respiration State 4,[1]; 100-fold Cmax,1.13 ± 0.05
same,Succinate-driven respiration State 3,[1]; 100-fold Cmax,0.65 ± 0.03
same,Succinate-driven respiration State 4,[1]; 100-fold Cmax,1.05 ± 0.01
same,State 3 respiration driven by glutamate/malate at 100XCmax,[1]; [17],0.66±0.03
same,State 3 respiration driven by succinate at 100XCmax,[1]; [17],0.65±0.03
same,State 4 respiration driven by succinate at 100XCmax,[1]; [17],0
same,lowest concentration significantly affecting mitochondrial oxygen consumption,[1]; tested at 1 to 100-fold Cmax,50 fold Cmax
same,RCC I at 10XCmax,[2],0
same,RCC II at 1.0XCmax,[3],0
same,RCC II at 2.5XCmax,[3],0
same,RCC II at 5XCmax,[3],0
same,RCC II at 10XCmax,[3],0
same,RCC II at 20XCmax,[3],0
same,RCC II at 30XCmax,[3],0
same,RCC II at 50XCmax,[3],0
same,RCC II at 100XCmax,[3],0
same,RCC III at 100XCmax,[4],0
same,RCC IV at 50XCmax,[5],0
same,MMP measured by Rhodamine 123 at 1XCmax,[6],0
same,MMP measured by Rhodamine 123 at 2.5XCmax,[6],0
same,MMP measured by Rhodamine 123 at 5XCmax,[6],0
same,MMP measured by Rhodamine 123 at 10XCmax,[6],0
same,MMP measured by Rhodamine 123 at 20XCmax,[6],0
same,MMP measured by Rhodamine 123 at 30XCmax,[6],0
same,MMP measured by Rhodamine 123 at 50XCmax,[6],0
same,MMP measured by Rhodamine 123 at 100XCmax,[6],0
same,Cytochrome c release 1XCmax,[7],0
same,Cytochrome c release 2.5XCmax,[7],0
same,Cytochrome c release 5XCmax,[7],0
same,Cytochrome c release 10XCmax,[7],0
same,Cytochrome c release 20XCmax,[7],0
same,Cytochrome c release 30XCmax,[7],0
same,Cytochrome c release 50XCmax,[7],0
same,Cytochrome c release 100XCmax,[7],0
same,Cmax,"[8]; human therapeutic Cmax at FDA recommended dosages, ref product labeling and drug approval packages at the official FDA website",4.64 µM
same,Cmax (ng or µg/ml),"[8]; human therapeutic maximal blood concentration, ref product labeling",1.927 µg/mL
same,Cmax,[8]; [18],4.64 µM
same,ROS measured by CM-H2DCFDA at 1XCmax,[9],0
same,ROS measured by CM-H2DCFDA at 2.5XCmax,[9],0
same,ROS measured by CM-H2DCFDA at 5XCmax,[9],0
same,ROS measured by CM-H2DCFDA at 10XCmax,[9],0
same,ROS measured by CM-H2DCFDA at 20XCmax,[9],0
same,ROS measured by CM-H2DCFDA at 30XCmax,[9],0
same,ROS measured by CM-H2DCFDA at 50XCmax,[9],0
same,ROS measured by CM-H2DCFDA at 100XCmax,[9],0
CC(=O)Nc1cccc(-n2c(=O)n(C3CC3)c(=O)c3c(Nc4ccc(I)cc4F)n(C)c(=O)c(C)c32)c1 [Trametinib],State 3 respiration driven by glutamate/malate at 1XCmax,[1]; [10],0
same,State 3 respiration driven by succinate at 1XCmax,[1]; [10],0
same,State 4 respiration driven by glutamate/malate at 1XCmax,[1]; [10],0
same,State 4 respiration driven by succinate at 1XCmax,[1]; [10],0
same,State 3 respiration driven by glutamate/malate at 2.5XCmax,[1]; [11],0
same,State 3 respiration driven by succinate at 2.5XCmax,[1]; [11],0
same,State 4 respiration driven by glutamate/malate at 2.5XCmax,[1]; [11],0
same,State 4 respiration driven by succinate at 2.5XCmax,[1]; [11],0
same,State 3 respiration driven by glutamate/malate at 5XCmax,[1]; [12],0
same,State 3 respiration driven by succinate at 5XCmax,[1]; [12],0
same,State 4 respiration driven by glutamate/malate at 5XCmax,[1]; [12],0
same,State 4 respiration driven by succinate at 5XCmax,[1]; [12],0
same,State 3 respiration driven by glutamate/malate at 10XCmax,[1]; [13],0
same,State 3 respiration driven by succinate at 10XCmax,[1]; [13],0
same,State 4 respiration driven by glutamate/malate at 10XCmax,[1]; [13],0
same,State 4 respiration driven by succinate at 10XCmax,[1]; [13],0
same,State 3 respiration driven by glutamate/malate at 20XCmax,[1]; [14],0
same,State 3 respiration driven by succinate at 20XCmax,[1]; [14],0
same,State 4 respiration driven by glutamate/malate at 20XCmax,[1]; [14],0
same,State 4 respiration driven by succinate at 20XCmax,[1]; [14],0
same,State 3 respiration driven by glutamate/malate at 30XCmax,[1]; [15],0
same,State 3 respiration driven by succinate at 30XCmax,[1]; [15],0
same,State 4 respiration driven by glutamate/malate at 30XCmax,[1]; [15],0
same,State 4 respiration driven by succinate at 30XCmax,[1]; [15],0
same,State 3 respiration driven by glutamate/malate at 50XCmax,[1]; [16],0
same,State 3 respiration driven by succinate at 50XCmax,[1]; [16],0
same,State 4 respiration driven by glutamate/malate at 50XCmax,[1]; [16],0
same,State 4 respiration driven by succinate at 50XCmax,[1]; [16],0
same,State 3 respiration driven by glutamate/malate at 100XCmax,[1]; [17],0
same,State 3 respiration driven by succinate at 100XCmax,[1]; [17],0
same,State 4 respiration driven by glutamate/malate at 100XCmax,[1]; [17],0
same,State 4 respiration driven by succinate at 100XCmax,[1]; [17],0
same,RCC I at 10XCmax,[2],0
same,RCC II at 1.0XCmax,[3],0
same,RCC II at 2.5XCmax,[3],0
same,RCC II at 5XCmax,[3],0
same,RCC II at 10XCmax,[3],0
same,RCC II at 20XCmax,[3],0
same,RCC II at 30XCmax,[3],0
same,RCC II at 50XCmax,[3],0
same,RCC II at 100XCmax,[3],0
same,RCC III at 100XCmax,[4],0
same,RCC IV at 50XCmax,[5],0
same,MMP measured by Rhodamine 123 at 1XCmax,[6],0
same,MMP measured by Rhodamine 123 at 2.5XCmax,[6],0
same,MMP measured by Rhodamine 123 at 5XCmax,[6],0
same,MMP measured by Rhodamine 123 at 10XCmax,[6],0
same,MMP measured by Rhodamine 123 at 20XCmax,[6],0
same,MMP measured by Rhodamine 123 at 30XCmax,[6],0
same,MMP measured by Rhodamine 123 at 50XCmax,[6],0
same,MMP measured by Rhodamine 123 at 100XCmax,[6],0
same,Cytochrome c release 1XCmax,[7],0
same,Cytochrome c release 2.5XCmax,[7],0
same,Cytochrome c release 5XCmax,[7],0
same,Cytochrome c release 10XCmax,[7],0
same,Cytochrome c release 20XCmax,[7],0
same,Cytochrome c release 30XCmax,[7],0
same,Cytochrome c release 50XCmax,[7],0
same,Cytochrome c release 100XCmax,[7],0
same,Cmax,[8]; [18],0.04 µM
same,ROS measured by CM-H2DCFDA at 1XCmax,[9],0
same,ROS measured by CM-H2DCFDA at 2.5XCmax,[9],0
same,ROS measured by CM-H2DCFDA at 5XCmax,[9],0
same,ROS measured by CM-H2DCFDA at 10XCmax,[9],0
same,ROS measured by CM-H2DCFDA at 20XCmax,[9],0
same,ROS measured by CM-H2DCFDA at 30XCmax,[9],0
same,ROS measured by CM-H2DCFDA at 50XCmax,[9],0
same,ROS measured by CM-H2DCFDA at 100XCmax,[9],0
